From patent US20240262845A1, “PYRIDINIUM SALTS, METHODS OF MAKING, AND METHODS OF USE” (UNIVERSITY OF WYOMING, priority 2023, published 2024)
Structures can show the parent of a compound that is named as a salt.

Columns and labels:
[1] = target: T1, lysozyme (Gallus gallus, UniProt P00698); assay: Photochemical labeling of lysozyme with pyridinium salts (General Procedure B, LC/MS); type: biochemical, chicken
T1 construct: Lysozyme (from chicken egg white, >40,000 units/mg of protein); purchased Sigma Aldrich; host or cells: chicken egg white
Experimental: (§1) General Procedure B: Photochemical Irradiation of Peptides and Proteins: To a 2 mL Pyrex LC/MS vial (Thermo model #03-391-39) were sequentially added solutions containing the desired biomolecule, glutathione (GSH), pyridinium salt, and ammonium acetate (NH4OAc). The resulting solution was diluted to a final volume of 500 μL and then sparged using nitrogen for a minimum of 30 minutes prior to irradiation. The actively sparging solution was then placed in an EvoluChem™ PhotoRedOx Box photoreactor that was equipped with a Kessil, PR160 427 nm LED Lamp and was then irradiated (100% lamp intensity) for the designated time at room temperature while maintaining active sparging. The resultant reaction mixture was then analyzed directly by LC/MS. Analysis of labeling outcomes using LC/MS was performed either by extracted ion chromatogram intensities (method A) or by integrating the area under the peaks associated with peptide content (method B). These values were totaled, and estimated percentages were assigned according to relative intensities of peaks or ion counts.
Labeling of Lysozyme with Pyridinium Salt 2a (Lysozyme-2a Conjugate). Labeling of lysozyme (14.3 kDa) with the pyridinium salt 2a was performed by following general procedure B using the following solutions: lysozyme (27 μL, 182 μM, 10 μM final concentration), pyridinium salt 2a (200 μL, 500 μM, 200 μM final concentration), NH4OAc (100 μL, 100 mM, pH=6.9, 20 mM final concentration), glutathione (15 μL, 10 mM, 300 μM final concentration), and water (158 μL) with a 100% intensity irradiation time of 60 minutes. The reaction mixture was analyzed directly by LC/MS using method A and was estimated to have proceeded in >95% conversion and a 10.9:1 mono:di labeled ratio and 10% glutathionylation of all unlabeled and labeled protein content was observed.
Labeling of Lysozyme with Pyridinium Salt 2b (Lysozyme-2b Conjugate). Labeling of lysozyme (14.3 kDa) with the pyridinium salt 2b was performed by following general procedure Busing the following solutions: lysozyme (19 μL, 262 μM, […]), 2b (181 μL, 554 μM, 200 μM final concentration), NH4OAc (50 μL, 200 mM, pH=6.9, 20 mM final concentration), glutathione (50 μL, 3 mM, 300 μM final concentration), and water (200 μL) with a 100% intensity irradiation time of 10 minutes. The reaction mixture was analyzed directly by LC/MS using method A and was estimated to have proceeded with 83% conversion. […]
Labeling of Lysozyme with Pyridinium Salt 2c (Lysozyme-2c Conjugate). […] The reaction mixture was analyzed directly by LC/MS using method A and was estimated to have proceeded with 85% conversion and a 3.7:1 mono:di labeled ratio and 10% glutathionylation of all protein content was observed. […]

[2] = target: T2, bovine carbonic anhydrase II (Bos taurus, UniProt P00921); assay: Photochemical labeling of bovine carbonic anhydrase II with pyridinium salt (General Procedure B, LC/MS); type: biochemical; settings: trypsin digest
T2 construct: Carbonic Anhydrase Isozyme II from bovine erythrocytes; purchased Sigma Aldrich; host or cells: bovine erythrocytes
Experimental: as §1, with “Analysis of labeling outcomes using LC/MS was performed either by extracted ion chromatogram intensities (method A) or by integrating the area under the peaks associated with peptide content (method B). These values were totaled, and estimated percentages were assigned according to relative intensities of peaks or ion counts.” left out
Labeling of Bovine Carbonic Anhydrase II with Pyridinium Salt 2a (Bovine Carbonic Anhydrase II-2a Conjugate). […] The reaction mixture was directly analyzed by LC/MS using method A and was estimated to have proceeded with 34% conversion and a 4.5:1 mono:di labeled ratio. […]
General Trypsin Digest Protocol B: For non-cystine bridged labeled proteins, a standard trypsin digest was modified as follows. […] The digested mixture was analyzed directly by LC/MS and MS/MS using method C. […]

T1 sequence (P00698 19-147): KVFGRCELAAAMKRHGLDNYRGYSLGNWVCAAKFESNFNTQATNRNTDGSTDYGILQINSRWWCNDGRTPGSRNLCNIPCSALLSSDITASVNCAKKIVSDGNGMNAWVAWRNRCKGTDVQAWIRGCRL
T2 sequence (P00921 whole entry): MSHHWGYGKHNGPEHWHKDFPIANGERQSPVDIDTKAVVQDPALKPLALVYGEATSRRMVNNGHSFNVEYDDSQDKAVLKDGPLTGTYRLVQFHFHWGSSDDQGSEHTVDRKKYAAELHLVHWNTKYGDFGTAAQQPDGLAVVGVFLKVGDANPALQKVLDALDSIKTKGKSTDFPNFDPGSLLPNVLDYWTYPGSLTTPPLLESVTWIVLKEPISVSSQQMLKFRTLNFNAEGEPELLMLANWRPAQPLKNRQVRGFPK

Structure (SMILES): COc1ccc2cc(-c3cc(C)[n+](N(C)C(=O)OCCCCC[C@H]4SC[C@H]5NC(=O)N[C@H]54)c(C)c3)ccc2c1 (stereo in doubt) [pyridinium salt 2b, 4-(6-methoxynaphthalen-2-yl)-2,6-dimethyl-1-(methyl(((5-((3aR,4R,6aS)-2-oxohexahydro-1H-thieno[3,4-d]imidazol-4-yl)pentyl)oxy)carbonyl)amino)pyridin-1-ium tetrafluoroborate]
- labeling rate compared to pyridinium salt 2a ([1]; lysozyme labeling): much faster rate

Structure (SMILES): COC(=O)N(C)[n+]1c(C)cc(-c2ccc3cc(OC)ccc3c2)cc1C [pyridinium salt 2a, 1-((methoxycarbonyl)(methyl)amino)-4-(6-methoxynapthalen-2-yl)-2,6-dimethylpyridin-1-ium tetrafluoroborate]
- Modified Trp ([1]; trypsin digest, MS-MS): Trp-62
- Modified Trp [2]: Trp-243
